# Like-named read-outs stand apart in the source and are kept apart here.
# Experiments:
# [1] = Stain test on pellicle-coated plastic artificial molars (coffee/tea); details: for Stain Grade: 0-8 scale (0 no stain, 8 continuous dark brown stain); for promotion of stains: demonstrated by the stain test
# Method: Plastic artificial molars were mounted in the caps of disposable plastic vials using dental cement. A thin, organic pellicle was developed on the teeth by exposure for about 17 hours to pooled human saliva which has been centrifuged for 2 minutes at 500X gravity to remove food and similar debris. The coated teeth were serially exposed for 5 minutes to a solution of the test material, a distilled water rinse, for 5 minutes to a solution of instant coffee and tea (20 grams of commercial instant coffee and 2 grams of commercial instant tea in 1 liter of distilled water), a distilled water rinse, the test solution for 5 minutes, a distilled water rinse, the coffee/tea solution for 5 minutes, and a final distilled water rinse. The teeth were then graded for degree of staining on a 0-8 scale (where 0 was no stain and 8 was continuous dark brown stain) by comparison with a photographic standard.
# E. coli [2] = assay: Minimum Bactericidal Concentration test; format: cell-based; details: 10-minute contact at 37°C
# Method: (§1) The data are from standard tests for measuring Minimum Bactericidal Concentrations (using a 10-minute contact with the test agent at 37°C; representing at least 3 log unit reduction in viable cell count).
# S. aureus = assay: Minimum Bactericidal Concentration test; format: cell-based; details: 10-minute contact at 37°C
# Method: as §1
# E. coli [3] = format: cell-based; details: for Log Survivors/ml: approximately 10^7 E. coli/ml, 10 min. at 37°C; for effectiveness as component of the antimicrobial compositions: other polyvalent metals in place of the rare earth, tested in the foregoing manner
# Staphylococcus = details: cited from earlier work
# molds = details: cited from earlier work
# [4] = Water solubility / precipitation from solution; format: physicochemical; details: in combination with a rare earth
# Excerpt: Moreover, the compounds herein or their rare earth metal components precipitate from solution at pH's above about 8. See: Moeller and Kremers, Chem. Rev. 37:114 (1945). Moreover, highly acid (below about pH 4) solutions of the surfactants herein have antimicrobial properties in their own right. Of course, compositions intended for oral use should have a pH above about 4 to avoid damage to dental enamel. With certain species of microorganisms, especially with Pityrosporum ovale which is the causative microorganism for dandruff, the compositions herein are optimally active in the pH range of 4.0-4.5.
# The present invention specifically encompasses the more water-soluble, antimicrobially-active rare earth/alkyl benzene sulfonate compositions.
# [5] = Antimicrobial activity of rare earth/surfactant combinations; format: cell-based; details: in combination with a rare earth
# Method: as §1
# Bacillus subtilis = assay: Minimum Bactericidal Concentration of LaLAS; format: cell-based; details: Gram-positive
# Method: as §1
# E. coli ATCC 11775 = assay: Minimum Bactericidal Concentration of LaLAS; format: cell-based; details: Gram-negative
# Method: as §1
# [6] = test system: Kleb. pneumoniae ATCC 4352; assay: Minimum Bactericidal Concentration of LaLAS; format: cell-based; details: Gram-negative
# Method: as §1
# [7] = test system: Micrococcus luteus ATCC 4698; assay: Minimum Bactericidal Concentration of LaLAS; format: cell-based; details: Gram-positive
# Method: as §1
# Proteus vulgaris = assay: Minimum Bactericidal Concentration of LaLAS; format: cell-based; details: Gram-negative
# Method: as §1
# [8] = test system: Ps. aeruginosa ATCC 15442; assay: Minimum Bactericidal Concentration of LaLAS; format: cell-based; details: Gram-negative
# Method: as §1
# Salmonella typhimurium = assay: Minimum Bactericidal Concentration of LaLAS; format: cell-based; details: Gram-negative
# Method: as §1
# Staph. aureus ATCC 6538 = assay: Minimum Bactericidal Concentration of LaLAS; format: cell-based; details: Gram-positive
# Method: as §1
# [9] = test system: Staph. epidermidis ATCC 14990; assay: Minimum Bactericidal Concentration of LaLAS; format: cell-based; details: Gram-positive
# Method: as §1
# Strep. faecalis = assay: Minimum Bactericidal Concentration of LaLAS; format: cell-based; details: Gram-positive
# Method: as §1
# dental plaque = assay: In vitro growth of dental plaque on extracted human teeth in growth chambers; format: cell-based; details: plaque-inhibiting solutions for one minute each morning and afternoon, four days; compared with water-treated controls
# Excerpt: The efficacy of the antimicrobial composition LaLAS was compared with the known anti-plaque agent chlorhexidine digluconate for the prevention of dental plaque, as follows: • Lanthanum 4-(1'-methylnonyl)benzenesulfonate (LaLAS) was used in this test to reduce the in vitro growth of dental plaque on teeth. This was done using a system of glass growth chambers containing clean, extracted, sound human teeth mounted in stainless steel brackets. After sterilization in an autoclave, the growth chambers were inoculated with homogenized human plaque scrapings and serially treated with Trypticase® soy broth, sucrose, artificial saliva, and solutions of plaque-inhibiting materials for four days: The plaque-inhibiting solutions were introduced for one minute each morning and afternoon. After this treatment, the teeth were withdrawn from the growth chambers, stained with an alcoholic solution of basic fuchsin to disclose any plaque that had formed and, after randomization, graded for percent plaque coverage by three trained judges. Percent plaque reduction was calculated by comparison with water-treated controls. [formula]
# [10] = 3 molecular equivalents of Na surfactant to 1 molecular equivalent of LaCl3
# [11] = Rare Earth Cation 0.01 mM + 2-C10LAS 0.03 mM
# [12] = Rare Earth Cation 0.05 mM + 2-C10LAS 0.15 mM
# [13] = Rare Earth Cation 0.1 mM + 2-C10LAS 0.3 mM
# [14] = Rare Earth Cation 0.1 mM alone, 2-C10LAS 0 mM
# [15] = inorganic lanthanum salt alone, at least 3 log unit reduction in viable cell count
compound,measurement,setting,value
CCCCCCCCCCCCCCCC[n+]1ccccc1 [Cetylpyridinium chloride],Stain Grade,[1]; 2000 ppm test solution,2.7
[H]/N=C(\N/C(=N/[H])NCCCCCCNC(=N)NC(=N)Nc1ccc(Cl)cc1)Nc1ccc(Cl)cc1 [Chlorhexidine],Stain Grade,[1]; 2000 ppm test solution,3.2
"CCCCCCCCC(C)c1ccc(S(=O)(=O)O)cc1 (stereo not shown) [Compound 2-C10LAS, 4-(l'-methylnonyl)benzenesulfonate]",Minimum Bactericidal Concentration (ppm) E. coli Na salt + LaCl3,E. coli [2]; [10],32 ppm
same,MBC,"E. coli [2]; Escherichia coli, 10 min, surfactant as Na salt alone, read-out: Minimum Bactericidal Concentration (ppm) E. coli as Na salt",> 2000 µg/mL
same,Minimum Bactericidal Concentration (ppm) S. aureus Na salt + LaCl3,S. aureus; [10],32 ppm
same,MBC,"S. aureus; Staphylococcus aureus, 10 min, surfactant as Na salt alone, read-out: Minimum Bactericidal Concentration (ppm) S. aureus as Na salt",2000 µg/mL
same,Log Survivors/ml,"E. coli [3]; Rare Earth Cation 0 mM, 2-C10LAS 0.3 mM alone",6
[Cl][Dy]([Cl])[Cl] [DyCl3],Log Survivors/ml,E. coli [3]; [11],0
same,Log Survivors/ml,E. coli [3]; [12],0
same,Log Survivors/ml,E. coli [3]; [13],0
same,Log Survivors/ml,E. coli [3]; [14],3
[Cl][La]([Cl])[Cl] [LaCl3],Log Survivors/ml,E. coli [3]; [11],0
same,Log Survivors/ml,E. coli [3]; [12],0
same,Log Survivors/ml,E. coli [3]; [13],0
same,Log Survivors/ml,E. coli [3]; [14],5
"O.O.O.O.O.O.[Cl-].[Cl-].[Cl-].[La+3] [LaCl3·6H2O, lanthanum chloride hexahydrate]",Minimum Bactericidal Concentration,E. coli [2]; [15],>3500 ppm
same,Minimum Bactericidal Concentration,S. aureus; [15],>3500 ppm
[Cl][Nd]([Cl])[Cl] [NdCl3],Log Survivors/ml,E. coli [3]; [11],1
same,Log Survivors/ml,E. coli [3]; [12],0
same,Log Survivors/ml,E. coli [3]; [13],0
same,Log Survivors/ml,E. coli [3]; [14],3
[Cl][Pr]([Cl])[Cl] [PrCl3],Log Survivors/ml,E. coli [3]; [11],0
same,Log Survivors/ml,E. coli [3]; [12],0
same,Log Survivors/ml,E. coli [3]; [13],0
same,Log Survivors/ml,E. coli [3]; [14],3
[Cl][Yb]([Cl])[Cl] [YbCl3],Log Survivors/ml,E. coli [3]; [11],0
same,Log Survivors/ml,E. coli [3]; [12],0
same,Log Survivors/ml,E. coli [3]; [13],0
same,Log Survivors/ml,E. coli [3]; [14],2
[Ca] [calcium],effectiveness as component of the antimicrobial compositions,E. coli [3],ineffective
O=[N+]([O-])[O-].O=[N+]([O-])[O-].O=[N+]([O-])[O-].[Ce+3] [cerium nitrate],concentration that inhibits Staphylococcus,Staphylococcus,1000 ppm
same,concentration that inhibits molds,molds,1000 ppm
[H]/N=C(\N/C(=N/[H])NCCCCCCNC(=N)NC(=N)Nc1ccc(Cl)cc1)Nc1ccc(Cl)cc1 [chlorhexidine digluconate],promotion of stains,[1],undesirably promotes stains
[Fe] [iron],effectiveness as component of the antimicrobial compositions,E. coli [3],ineffective
[Mg] [magnesium],effectiveness as component of the antimicrobial compositions,E. coli [3],ineffective
CCCCCCCCCCCCc1ccc(S(=O)(=O)O)cc1 [n-C12LAS],water solubility,[4],rather water-insoluble
same,antimicrobial activity,[5],rather poor
aluminum,effectiveness as component of the antimicrobial compositions,E. coli [3],ineffective
lanthanum 4-(l'-methylnonyl)benzenesulfonate [LaLAS],Minimum Bactericidal Conc. of LaLAS,Bacillus subtilis,500 ppm
same,Minimum Bactericidal Conc. of LaLAS,E. coli ATCC 11775,32 ppm
same,Minimum Bactericidal Conc. of LaLAS,[6],125 ppm
same,Minimum Bactericidal Conc. of LaLAS,[7],125 ppm
same,Minimum Bactericidal Conc. of LaLAS,Proteus vulgaris,32 ppm
same,Minimum Bactericidal Conc. of LaLAS,[8],16 ppm
same,Minimum Bactericidal Conc. of LaLAS,Salmonella typhimurium,125 ppm
same,Minimum Bactericidal Conc. of LaLAS,Staph. aureus ATCC 6538,32 ppm
same,Minimum Bactericidal Conc. of LaLAS,[9],32 ppm
same,Minimum Bactericidal Conc. of LaLAS,Strep. faecalis,32 ppm
same,anti-plaque efficacy,dental plaque,equivalent to chlorhexidine digluconate
same,Stain Grade,[1]; 2000 ppm in 20% EtOH,0
same,Stain Grade,[1]; 2000 ppm test solution,0.1
same,promotion of stains,[1],does not

# Reference: EP0018019A1, “Antimicrobial water-soluble compound which contains a rare earth metal cation, its application in oral compositions and method for controlling microorganisms therewith” (priority 1979, dated 1980)
